Measured values reported in patent publication US20240279221A1, “HETEROCYCLIC COMPOUNDS AND METHODS OF USE” (Schrödinger, Inc., priority 2021, published 2024).

target: SOS1:KRAS (G12C) interaction (Homo sapiens (Human), UniProt Q07889); assay: SOS1-KRas(G12C) FRET Assay; type: binding; conditions: 0.5 nM His10-SOS1 (res. 564-1049), 2.5 nM GST-KRAS (res. 1-169, G12C); read-out: SOS-KRas(G12C) FRET IC50
Description: Inhibition of the SOS1:KRAS interaction was measured using purified GST-tagged KRAS (res. 1-169, G12C, purified based on Hillig, et al., Proc Natl Acad Sci USA (2019); 116(7):2551-2560) and recombinant His10-SOS1 (res. 564-1049; purified based on Hillig, et al.). The final assay was performed at 20 uL with 0.5 nM SOS1 protein and 2.5 nM KRAS protein in a buffer of PBS, 0.1% BSA, 5 mM MgCl2, 0.0025% Igepal, 100 mM KF, 5 mM DTT in a white 384 square well OptiPlate (PerkinElmer, Cat. 6007290). A 2× KRAS working solution was prepared in an assay buffer containing 5 nM GST-KRAS G12C and 2 nM anti-GST-Eu(K) (Cisbio, Cat. 61GSTKLA) and pre-incubated for 15 minutes at 25° C. Compounds were serially diluted in 100% DMSO from 2 mM (positive control, compound I-13, PCT Publ. No. WO2018/115380) or 20 mM and then diluted 1:20 in assay buffer before incubation with a solution of SOS1 protein mixed 1:5 with anti-6His-XL665 FRET donor (Cisbio, Cat. 61HISXL) for 15 minutes at 25° C. before addition of 2× KRAS working solution. The final DMSO concentration is 0.5%. Plates were incubated at RT for 2 hrs before the FRET signal was measured using Envision at emission 665 nm and 615 nm. FRET signal was converted to percentage of protein-protein interaction using the following equation:
[formula] • C: signal with compound treatment • P: signal for positive control (DMSO) • N: signal for negative control (no SOS1 added) • IC50 and Hill coefficients were obtained using Graph Pad Prism (Graph Pad software, Inc, USA) with non-linear regression analysis.

Chain of SOS1:KRAS (G12C) interaction (Q07889 564-1049, stated change not applied): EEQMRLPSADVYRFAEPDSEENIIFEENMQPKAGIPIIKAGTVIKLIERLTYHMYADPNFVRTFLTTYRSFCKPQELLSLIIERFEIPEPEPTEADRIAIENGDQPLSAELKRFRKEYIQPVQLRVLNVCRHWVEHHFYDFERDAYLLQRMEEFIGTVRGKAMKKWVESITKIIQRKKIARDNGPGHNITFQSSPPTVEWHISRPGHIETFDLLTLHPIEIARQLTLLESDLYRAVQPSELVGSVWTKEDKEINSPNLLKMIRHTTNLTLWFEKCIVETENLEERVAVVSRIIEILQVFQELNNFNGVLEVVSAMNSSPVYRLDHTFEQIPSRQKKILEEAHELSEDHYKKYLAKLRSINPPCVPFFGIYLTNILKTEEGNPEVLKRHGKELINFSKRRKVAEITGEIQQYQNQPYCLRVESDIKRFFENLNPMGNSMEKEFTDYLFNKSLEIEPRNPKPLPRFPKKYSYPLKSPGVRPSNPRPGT

Structure (SMILES) | IC50 [µM]
C[C@@H](Nc1nn(C)c(=O)c2cc(=O)n(C3(C(F)F)CC3)cc12)c1cccc2c1OCCC2(F)F [Example 180, (R)-4-((1-(4,4-difluorochroman-8-yl)ethyl)amino)-6-(1-(difluoromethyl)cyclopropyl)-2-methyl-2,6-dihydropyrido[3,4-d]pyridazine-1,7-dione] | 0.179
C[C@H](Nc1nn(C)c(=O)c2cc(=O)n(C3CC3)cc12)c1ccc2c(c1)CCCC2 [Example 102, (S)-6-cyclopropyl-2-methyl-4-((1-(5,6,7,8-tetrahydronaphthalen-2-yl)ethyl)amino)-2,6-dihydropyrido[3,4-d]pyridazine-1,7-dione] | 3.79
Cn1nc(N[C@@H](c2cccc(C(F)(F)F)c2)C(F)F)c2cn(C3CC3)c(=O)cc2c1=O [Example 111, (S)-6-cyclopropyl-4-((2,2-difluoro-1-(3-(trifluoromethyl)phenyl)ethyl)amino)-2-methylpyrido[3,4-d]pyridazine-1,7(2H,6H)-dione] | 0.631
C[C@@H](Nc1nn(C)c(=O)c2cc(=O)n([C@@H]3CC34CCC(F)(F)CC4)cc12)c1cccc(C(F)F)c1F (single isomer, unassigned) [Example 131] | 0.277
C[C@@H](Nc1nn(C)c(=O)c2cc(=O)n(C3(C(F)F)CC3)cc12)c1cccc2ccnn12 [Example 116, (R)-6-(1-(difluoromethyl)cyclopropyl)-2-methyl-4-((1-(pyrazolo[1,5-a]pyridin-7-yl)ethyl)amino)-2,6-dihydropyrido[3,4-d]pyridazine-1,7-dione] | > 10
C[C@H](Nc1nn(C)c(=O)c2cc(=O)n(C3(C(F)F)CC3)cc12)c1cccc2c1OCCC2(F)F [Example 181, (S)-4-((1-(4,4-difluorochroman-8-yl)ethyl)amino)-6-(1-(difluoromethyl)cyclopropyl)-2-methyl-2,6-dihydropyrido[3,4-d]pyridazine-1,7-dione] | > 10
CNC(=O)C(F)(F)c1cccc([C@@H](C)Nc2nn(C)c(=O)c3cc(=O)n(C4CC4)cc23)c1F [Example 107, (R)-2-(3-(1-((6-cyclopropyl-2-methyl-1,7-dioxo-1,2,6,7-tetrahydropyrido[3,4-d]pyridazin-4-yl)amino)ethyl)-2-fluorophenyl)-2,2-difluoro-N-methylacetamide] | 0.271
C[C@@H](Nc1nn(C)c(=O)c2cc(=O)n([C@H]3CC3(C)C)cc12)c1cccc(C(F)F)c1F (single isomer, unassigned) [Example 133] | 0.245
C[C@H](Nc1nn(C)c(=O)c2cc(=O)n(C3CCOCC3)cc12)c1cccc2sccc12 [Example 63, (S)-4-((1-(benzo[b]thiophen-4-yl)ethyl)amino)-2-methyl-6-(tetrahydro-2H-pyran-4-yl)-2,6-dihydropyrido[3,4-d]pyridazine-1,7-dione] | > 10
C[C@H](Nc1nn(C)c(=O)c2cc(=O)n(C3(C(F)F)CC3)cc12)c1cccc2cccn12 [Example 113, (S)-6-(1-(difluoromethyl)cyclopropyl)-4-((1-(indolizin-5-yl)ethyl)amino)-2-methyl-2,6-dihydropyrido[3,4-d]pyridazine-1,7-dione] | > 10
C[C@@H](Nc1nn(C)c(=O)c2cc(=O)n([C@@H]3CC34CC4)cc12)c1cccc(C(F)F)c1F (single isomer, unassigned) [Example 128] | 0.287
C[C@@H](Nc1nn(C)c(=O)c2cc(=O)n([C@]3(C(F)(F)F)CCN(C)C3)cc12)c1cccc(C(F)F)c1F (single isomer, unassigned) [Example 98] | 0.989
C[C@@H](Nc1nn(C)c(=O)c2cc(=O)n([C@@H]3C[C@H]3c3cncc(F)c3)cc12)c1cccc(C(F)F)c1F (single isomer, unassigned) [Example 94] | 0.378
C[C@@H](Nc1nn(C)c(=O)c2cc(=O)n([C@@H]3CCC(F)(F)C3)cc12)c1cccc(C(F)F)c1F (single isomer, unassigned) [Example 122] | 0.315
C[C@@H](Nc1nn(C)c(=O)c2cc(=O)n(C3CC3)cc12)c1ccc2c(c1)CCCC2 [Example 101, (R)-6-cyclopropyl-2-methyl-4-((1-(5,6,7,8-tetrahydronaphthalen-2-yl)ethyl)amino)-2,6-dihydropyrido[3,4-d]pyridazine-1,7-dione] | > 100

Now those with a lower IC50, led by results:

IC50 [µM] | Structure (SMILES)
0.12 | CC(=O)N1C[C@H]2C[C@@]2(n2cc3c(N[C@H](C)c4cccc(C(F)F)c4F)nn(C)c(=O)c3cc2=O)C1 (single isomer, unassigned) [Example 139]
0.0705 | C[C@@H](Nc1nn(C)c(=O)c2cc(=O)n([C@H]3C[C@@H]3C3CC3)cc12)c1cccc(C(F)F)c1F (single isomer, unassigned) [Example 135]
0.0684 | C[C@@H](Nc1nn(C)c(=O)c2cc(=O)n(C34COC(C)(C3)C4)cc12)c1cccc(C(F)F)c1F [Example 179, (R)-4-((1-(3-(difluoromethyl)-2-fluorophenyl)ethyl)amino)-2-methyl-6-(1-methyl-2-oxabicyclo[2.1.1]hexan-4-yl)-2,6-dihydropyrido[3,4-d]pyridazine-1,7-dione]
0.0678 | C[C@@H](Nc1nn(C)c(=O)c2cc(=O)n(C3(C(C)(F)F)CC3)cc12)c1cccc(C(F)F)c1F [Example 126, (R)-6-(1-(1,1-difluoroethyl)cyclopropyl)-4-((1-(3-(difluoromethyl)-2-fluorophenyl)ethyl)amino)-2-methyl-2,6-dihydropyrido[3,4-d]pyridazine-1,7-dione]
0.0481 | COC(C)(C)C(F)(F)c1cccc([C@@H](C)Nc2nn(C)c(=O)c3cc(=O)n(C4(C(F)F)CC4)cc23)c1F [Example 110, (R)-4-((1-(3-(1,1-difluoro-2-methoxy-2-methylpropyl)-2-fluorophenyl)ethyl)amino)-6-(1-(difluoromethyl)cyclopropyl)-2-methyl-2,6-dihydropyrido[3,4-d]pyridazine-1,7-dione]
0.0367 | C[C@@H](Nc1nn(C)c(=O)c2cc(=O)n(C3(C(F)F)CC3)cc12)c1cccc2c1OCC2(F)F [Example 160, (R)-4-((1-(3,3-difluoro-2,3-dihydrobenzofuran-7-yl)ethyl)amino)-6-(1-(difluoromethyl)cyclopropyl)-2-methyl-2,6-dihydropyrido[3,4-d]pyridazine-1,7-dione]
0.0343 | CC(=O)N1CC(C)(n2cc3c(N[C@H](C)c4cccc(C(F)F)c4F)nn(C)c(=O)c3cc2=O)C1 [Example 149, (R)-6-(1-acetyl-3-methylazetidin-3-yl)-4-((1-(3-(difluoromethyl)-2-fluorophenyl)ethyl)amino)-2-methylpyrido[3,4-d]pyridazine-1,7(2H,6H)-dione]
0.0242 | COc1c(=O)n([C@@]2(C(F)(F)F)CCOC2)cc2c(N[C@H](C)c3cccc(C(F)F)c3F)nn(C)c(=O)c12 (single isomer, unassigned) [Example 157]
0.0185 | CC(=O)N1CC(C(F)F)(n2cc3c(N[C@H](C)c4cccc(C(F)F)c4F)nn(C)c(=O)c3cc2=O)C1 [Example 154, (R)-6-(1-acetyl-3-(difluoromethyl)azetidin-3-yl)-4-((1-(3-(difluoromethyl)-2-fluorophenyl)ethyl)amino)-2-methylpyrido[3,4-d]pyridazine-1,7(2H,6H)-dione]
0.0078 | CC(=O)N1CC[C@@](C)(n2cc3c(N[C@H](C)c4cccc(C(F)F)c4F)nn(C)c(=O)c3cc2=O)C1 (single isomer, unassigned) [Example 143]
